Test [1] deals with T1, 5-hydroxytryptamine receptor 1A (Homo sapiens, UniProt P08908).
T1 sequence (P08908 whole entry): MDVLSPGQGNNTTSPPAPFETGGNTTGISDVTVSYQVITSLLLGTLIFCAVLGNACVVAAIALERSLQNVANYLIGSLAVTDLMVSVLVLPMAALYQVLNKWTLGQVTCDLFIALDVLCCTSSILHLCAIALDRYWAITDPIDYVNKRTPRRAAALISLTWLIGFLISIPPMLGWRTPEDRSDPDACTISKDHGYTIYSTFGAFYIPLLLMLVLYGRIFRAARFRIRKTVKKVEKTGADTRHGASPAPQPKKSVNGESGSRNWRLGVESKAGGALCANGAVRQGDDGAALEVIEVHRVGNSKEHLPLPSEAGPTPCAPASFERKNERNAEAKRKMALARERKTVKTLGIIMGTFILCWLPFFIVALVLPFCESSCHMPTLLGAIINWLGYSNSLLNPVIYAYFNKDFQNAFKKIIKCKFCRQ
Kind of test: Inhibition of 5HT1A receptor.

Test [2] has as its target 5-hydroxytryptamine receptor 7 (Homo sapiens, UniProt P34969). Kind of test: Binding affinity to 5HT7 receptor.

pIC50, pKi: −log10 of the molar value.

5-hydroxytryptamine receptor 7, sequence (P34969 whole entry): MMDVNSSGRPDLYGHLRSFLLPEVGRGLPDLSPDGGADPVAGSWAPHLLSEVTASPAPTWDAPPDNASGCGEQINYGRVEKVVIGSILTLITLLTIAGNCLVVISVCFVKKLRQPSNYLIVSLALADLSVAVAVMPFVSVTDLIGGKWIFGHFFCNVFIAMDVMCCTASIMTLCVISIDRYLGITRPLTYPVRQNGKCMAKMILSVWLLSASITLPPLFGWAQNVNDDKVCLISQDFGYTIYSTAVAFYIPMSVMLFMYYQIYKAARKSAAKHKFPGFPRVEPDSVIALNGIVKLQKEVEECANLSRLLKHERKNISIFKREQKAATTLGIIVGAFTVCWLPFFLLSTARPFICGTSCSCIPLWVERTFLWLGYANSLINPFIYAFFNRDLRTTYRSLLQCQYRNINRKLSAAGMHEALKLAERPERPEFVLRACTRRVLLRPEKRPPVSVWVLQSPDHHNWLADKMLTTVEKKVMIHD

Turning to `COc1ccc2[nH]cc(CCCCN3CC=C(c4ccccc4)CC3)c2c1`, the pIC50 in test [1] is 7.70. `O=C1Nc2cccc3c2C1(CCCCN1CCN(c2ccccc2)CC1)CCC3` (racemic) gave a pKi in test [2] of 8.67. Same read-out and setting: as for `O=C1Nc2cccc3c2C1(CCCCN1CC=C(c2ccccc2)CC1)CCC3` (racemic), the figure is 8.48. Turning to `Oc1ccc2[nH]cc(CCCCN3CC=C(c4ccccc4)CC3)c2c1` [ROXINDOLE], the pIC50 in test [1] is 9.10.

By pIC50 is commonly meant the IC50 on a negative log10 scale, so that one unit is a factor of ten. The term pKi denotes −log10 of the Ki, conventionally taken in molar units. Read a high pKi as a small Ki.

The values are drawn from ChEMBL document CHEMBL1158508, “Molecular modeling study of 4-phenylpiperazine and 4-phenyl-1,2,3,6-tetrahydropyridine derivatives: a new step towards the design of high-affinity 5-HT1A ligands” (Bioorg Med Chem Lett, 2010).
